Experiments:
[1] = system: murine bone marrow-derived macrophages; assay: area under cytotoxicity dose-response curve (AUC (% cytotoxicity x dose, relative)); higher = more cytotoxic; conditions: duration: 6 days; dose range: 0.13-80 uM, 8 points
Method in brief: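 Using opaque 384-well plates, primary murine bone marrow-derived macrophages were treated for 6 days at 37 °C in 5% CO2 with an 8-point, 2.5-fold dilution series spanning final concentrations of 80–0.13 μM. After CellTiter-Glo (Promega) luminescence readout of viability, percent cytotoxicity was normalised to vehicle and positive control wells. The reported value is the area under the dose–response curve for cytotoxicity, derived in GraphPad Prism version 10.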

[2] = system: Mycobacterium tuberculosis CDC1551 (intracellular, in murine BMDM); assay: area under intracellular growth-inhibition dose-response curve (AUC (% inhibition x dose, relative)); higher = more potent; conditions: duration: 6 days; dose range: 0.13-80 uM, 8 points
Method in brief: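 Primary murine bone marrow-derived macrophages in 384-well opaque plates were infected 24 h after seeding with luciferase-expressing M. tuberculosis CDC1551 at multiplicity of infection 1 for 1 h. They were then treated with an 8-dose, 2.5-fold series (final 80–0.13 μM) for 6 days. Growth was read by Bright-Glo luciferin assay and normalised to a reference drug control and the lowest-concentration wells. The value is the area under the growth-inhibition dose–response curve, calculated in GraphPad Prism.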

Compound | area under cytotoxicity dose-response curve [1] | area under intracellular growth-inhibition dose-response curve [2]
Cc1nc(SCc2ccccc2)c2oc3ccccc3c2n1 | 34.5 | 143
CCn1nc(C(=O)Nc2cccc(S(=O)(=O)N3CCCC3)c2)c2ccccc2c1=O | 101 | 55.2
CCNc1nc(NCC)nc(N/N=C/c2ccc([N+](=O)[O-])o2)n1 | 18 | 266
CC(C)[C@@H]1CC[C@@H](C)C[C@H]1OC(=O)C[n+]1cc(-c2ccc(Cl)cc2)n2c1CCCCC2.[Cl-] | 101 | 8.38
COC(=O)c1ccc2nc(C)cc(Nc3ccc(N(C)C)cc3)c2c1.Cl | < 0 | 243
C/C(=N\NC(N)=S)c1ccc(Cl)s1 | < 0 | 263
O=C(N/N=C/c1c(F)c(F)c(F)c(F)c1F)c1ccc(Cn2cc(Br)cn2)o1 | < 0 | 154
Nc1nc(Cl)nc2c1ncn2[C@@H]1O[C@H](CO)[C@@H](O)[C@H]1O | 81.9 | 205
FC(F)Oc1ccc(NC(=S)Nc2ccc3c[nH]nc3c2)cc1 | < 0 | 219
CNC(=S)Nc1ccc(-c2nc3ccc(C)cc3s2)cc1 | 5.79 | 262
CCCC(=O)N1CCN(c2ccc(NC(=O)c3ccc([N+](=O)[O-])o3)cc2)CC1 | 129 | 107
CC1CCC(NC(=O)c2cc3c(s2)CCCC3)CC1 (stereo not drawn) | < 0 | 253
CN(C(=O)CSc1ncnc2sc3c(c12)CCC3)C1CCS(=O)(=O)C1 (stereo not drawn) | 4.88 | 60.2
O=C(COC(=O)C1CC2CCCC(C1)C2=O)Nc1ccc(F)c(Cl)c1 (stereo not drawn) | 44.5 | 90.3
O=C(NC1CCCCCCC1)c1ccc(Br)cc1 | < 0 | 268
Cc1cnc(C(=O)OCC(=O)Nc2cccc3ccccc23)cn1 | < 0 | 15.8
Cc1nnc(SCC2=C(C(=O)O)N3C(=O)C(NC(=O)Cn4cnnn4)C3SC2)s1 (stereo not drawn) | 100 | 138
CC(C)c1ccc(NC(=O)NC2CCCCC2)cc1 | 66.5 | 185
OC(CCCC(O)c1ccccc1)c1ccccc1 (stereo not drawn) | 31.6 | 203
CCC[C@@H](CN1CCC[C@H]1CN1C(N)=NC[C@H]1CC(C)C)N1C[C@@H]([C@H](C)CC)N(CCc2ccc(Cl)c(Cl)c2)C1=N | 13.4 | 129
CCOc1ccc(Br)cc1/C=N/NC(=O)c1ccncc1 | < 0 | 268
O=C(N/N=C/c1ccccn1)c1ccncc1 | 1.91 | 262
O=C(COc1ccccc1)NCc1cccs1 | 14.2 | 130
COc1ccc(CNc2nc3nc(C)c(Cl)c(O)n3n2)cc1 | 9.37 | 186
CCC(=O)NC(=S)Nc1ccc(NC(=O)c2ccc(Br)o2)cc1 | 58.2 | 211

Compound | area under cytotoxicity dose-response curve [1] | area under intracellular growth-inhibition dose-response curve [2]
CCC(=O)N1CCN(c2ccc(NC(=S)NC(=O)COc3ccccc3)cc2)CC1 | 76.2 | 194
O=C(/C=C/c1cccs1)NCc1cccs1 | 34.6 | 240
Nc1c2c(nc3ccn(Cc4ccccc4)c(=O)c13)CCC2 | 39.1 | 196
CC(NC(=O)c1ccccc1F)C12C[C@H]3C[C@@H](C1)C[C@@H](C2)C3 (stereo partly drawn) | 18.2 | 234
CCCC(=O)NC(=S)Nc1ccc(NC(=O)c2cccs2)cc1 | 8.63 | 261
CCOC(=O)c1cn(Cc2cccc(C)c2)nn1 | 56.6 | 98.1
Cc1cs/c(=N\C(=O)c2ccccc2)n1C | 57.5 | 102
BrC(=C\c1ccccc1)/C=N/n1cnnc1 | 97.5 | 5.21
O=C(N/N=C/c1coc2ccccc2c1=O)c1ccncc1 | < 0 | 272
O=c1c2ccccc2oc2nc3n(c(=O)c12)CCCS3 | 47.5 | 223
CC(C)Cn1c([N+](=O)[O-])nc2c1c(=O)[nH]c(=O)n2C | 40.1 | 5.16
COc1ccccc1C(CNC(=O)CN1C(=O)NC(C)(c2ccc3ccccc3c2)C1=O)N1CCCC1 (stereo not drawn) | 44.4 | 93.4
COc1ccc(CCNC(=O)c2cc([N+](=O)[O-])cc([N+](=O)[O-])c2)cc1OC | < 0 | 243
CCOc1ncnc2c1oc1nc(CC(C)C)c3c(c12)CC(C)(C)OC3 | 63.6 | 115
O=[N+]([O-])c1ccc(CN2CCN(c3ccc(F)cc3)CC2)o1 | < 0 | 245
CCOC(=O)CCCc1ccc(/C(C)=N/NC(N)=S)cc1 | 65.1 | 156
CCCCCc1ccc(OCCC[n+]2ccccc2)c(CCCCC)c1.[Cl-] | 53 | 137
COc1ccc(CNc2ncc(-c3ccc(Br)cc3)n2C)cc1OC.O=C(O)C(=O)O | 42.6 | 113
COc1ccc(C=CC(C)=NNC(=O)c2ccncc2)cc1 | < 0 | 254
Cc1ccc(C)c(NC(=O)CN(C)C(=O)c2ccc(S(=O)(=O)N3CCCCCC3)cc2)c1 | < 0 | 30.7
Cc1ccnc2c1ccc1cccnc12 | 208 | 149
O=C(NC1CCCCCC1)c1ccco1 | 47.2 | 214
COc1ccccc1C(CNC(=O)c1ccc(-c2ccccc2Cl)o1)N1CCCC1 (stereo not drawn) | 141 | 164
CCc1ccc(C(=O)NC2CCCCC2)s1 | 42.5 | 239

— the supplement of paper PMC11997997
